Here are results for 47 substances from article PMC8769072, “Proteome‐scale mapping of binding sites in the unstructured regions of the human proteome” (Molecular Systems Biology, 2022).

This assay relates to immobilized GST-tagged bait protein domains. Put plainly: ProP-PD phage selections (HD2 P8, sublibraries, HD2 P3, HD1 P8) with NGS and confidence level. The class given is binding, human. The note with it: for HD2_nucleus confidence: library HD2 P8 nucleus.
Where [1] appears, read: HD2 library, bait TLN1_PTB__Q9Y490_309_401, known motif instance of the benchmarking set found (TRUE) or not found (FALSE) among selected peptides.
The mark [2] stands for this setting: bait CALM1_EF-hand__P0DP23_2_149, library HD2, benchmarking set of validated motif instances, TRUE = motif instance recovered in the ProP-PD selection.
The mark [3] stands for this setting: bait PABP-B_PABP__P11940_544_623, HD2 library, confidence level (1-4) of best matching selected peptide.
Where [4] appears, read: bait PABP-B_PABP__P11940_544_623, HD2 library, specificity score of best matching selected peptide.
Setting [5] is: bait PABP-B_PABP__P11940_544_623, HD2 library, whether the validated benchmark motif instance was recovered in the ProP-PD selection (TRUE/FALSE).
[6] abbreviates: library HD2, bait WDR5_WD_1234567_P61964_21_334, validated benchmark motif instance, in_library_check TRUE, TRUE/FALSE = instance recovered in ProP-PD selection.
The mark [7] stands for this setting: HD2 library, bait CALM1_EF-hand__P0DP23_2_149, benchmark motif instance, in_library_check FALSE, in_library_coverage 0.
[8] abbreviates: bait PTK2_Focal-AT__Q05397_891_1050, HD2 library, whether the validated benchmark motif instance was recovered in the ProP-PD selection (TRUE/FALSE).
Where [9] appears, read: library HD2, bait Keap1_KELCH__Q14145_321_609, whether the validated benchmark motif instance was recovered in the ProP-PD selection (TRUE/FALSE).
The mark [10] stands for this setting: library HD2, bait EPS15_EH__P42566_121_215, best matching peptide.
Setting [11] is: library HD2, bait EPS15_EH__P42566_121_215, confidence level of best matching peptide (4 High, 2-3 Medium, 1 Low).
Where [12] appears, read: library HD2, bait EPS15_EH__P42566_121_215, whether the validated benchmark motif instance was recovered in the ProP-PD selection (TRUE/FALSE).
The mark [13] stands for this setting: HD2 library, bait TNKS_TANK-peptide-bind__O95271_174_649, known motif instance of the benchmarking set found (TRUE) or not found (FALSE) among selected peptides.

In turn, KLSKLDVLLLATTYIA registered an HD2_nucleus confidence (bait SIN3A_PAH__Q96ST3_295_383) of 4.

KMNAKWDTGENPIYKSAVTTVV: the motif_found entry under setting [1] is “FALSE”.

For KNSSCDTDDFVLVPHNISSD, the motif_found entry is recorded as “FALSE” (bait MAP1LC3A_ATG8 (Q9H492 2-121), HD2 library, benchmark motif instance recovered in the ProP-PD selection (TRUE/FALSE)) and “FALSE” (bait MAP1LC3B_ATG8 (Q9GZQ8 2-119), HD2 library, benchmark motif instance recovered in the ProP-PD selection (TRUE/FALSE)).

On to KRRWKKNFIAVSAANRFKKISSSGAL [MYLK2], for which the motif_found entry under setting [2] is on record as “FALSE”.

In the case of KSTLNPNAKEFNPRSF, under setting [3], the best_confidence turned out to be 2. Under setting [4], this substance gave a best_specificity of 1. Besides, under setting [5], the motif_found entry is listed as “TRUE”.

Consider KTAEKSDFEAVEALMSMSCSWKSD [KLF10 39-48], for which the motif_found entry (HD2 library, bait SIN3A_PAH__Q96ST3_295_383, benchmark motif instance, in_library_check FALSE, in_library_coverage 0) is “FALSE”.

In the case of LAVNPTGCARSEPKMSAHVKR, the motif_found entry under setting [6] is “FALSE”.

Turning to “LAYLRSHKDEVVKIQSLARMHQARKRYRDRLQYF [IQGAP1 806-825]”, under setting [7], the motif_found entry is “FALSE”.

The substance LDEAFSRLAQSRTNPQ had a best_specificity (bait AP2B1_adaptin__P63010_700_937, library HD2, best matching peptide) of 1. For the setting “bait AP2B1_adaptin__P63010_700_937, library HD2, confidence level of best matching peptide (4 = High, 2 or 3 = Medium, 1 = Low)”, this substance came in with a best_confidence of 2.

As for LDPDKPTNFTNPVYATLYMGGH, the motif_found entry under setting [1] is reported as “FALSE”.

For LELDRLMASLSDFRVQ, under “bait PTK2_Focal-AT__Q05397_891_1050, HD2 library, confidence level (1-4) of best matching selected peptide”, the best_confidence turned out to be 2. The substance further displayed a best_specificity (bait PTK2_Focal-AT__Q05397_891_1050, HD2 library, specificity score of best matching selected peptide) of 1. Besides, the motif_found entry under setting [8] is given as “TRUE”.

Consider LETKVFPRPVLPSLTV, for which the p3_HD2 confidence (bait ANKRA2_Ank__Q9H9E1_142_313, library HD2 P3) is 2. Also, the p3_HD2 count proportions (bait ANKRA2_Ank__Q9H9E1_142_313, library HD2 P3, mean normalised NGS counts) was determined as 0.06348. The p3_HD2 mean counts (bait ANKRA2_Ank__Q9H9E1_142_313, library HD2 P3, mean raw NGS counts, all selections) was 1066. The substance further yielded an HD2 confidence (bait ANKRA2_Ank__Q9H9E1_142_313, library HD2 P8) of 4. The same substance displayed an HD2_nc confidence (bait ANKRA2_Ank__Q9H9E1_142_313, library HD2 P8 nucleocytoplasmic) of 3. Also, the HD2_nc count proportions (bait ANKRA2_Ank__Q9H9E1_142_313, library HD2 P8 nucleocytoplasmic, mean normalised NGS counts) was 0.1009. The HD2_nc mean counts (bait ANKRA2_Ank__Q9H9E1_142_313, library HD2 P8 nucleocytoplasmic, mean raw NGS counts, all selections) was determined as 4420.0.

Under “bait CRK_SH3_1_P46108_124_198, HD2 P3 library, confidence level (4 = High, 2-3 = Medium, 1 = Low)”, LFCQNLPPPLPPKKYA displayed a p3_HD2 confidence of 3. The substance further displayed a p3_HD2 mean counts (bait CRK_SH3_1_P46108_124_198, HD2 P3 library, mean NGS counts over replicate selections) of 10444.0. In addition, the p3_HD2 count proportions (bait CRK_SH3_1_P46108_124_198, HD2 P3 library, mean proportion of NGS counts) is recorded as 0.2023.

For LFKSATTTVMNPKFAES-----, the motif_found entry under setting [1] was “FALSE”.

Turning to LHIKTHLDEETGEKTSITLD, the motif_found entry under setting [9] was “FALSE”.

Regarding LINVRKRNVESGEEELASKL, under setting [9], the motif_found entry was “FALSE”.

With “LKKLPSAVIALQRSFRSKRSKMLLEINRQK [IQCB1 321-336]”, the motif_found entry under setting [7] is on record as “FALSE”.

On to LKNINSINFDNPVYQKTTEDEV, for which, under setting [1], the motif_found entry is recorded as “FALSE”.

Consider LKVLVKAVLFACMLMRK, for which the motif_found entry (library HD2, bait CALM1_EF-hand__P0DP23_2_149, motif instance NOT in library (in_library_check FALSE, in_library_coverage 0)) is “FALSE”.

For the substance LLSIHKVYEAVELLKSNHFYR [GEMIN5 992-998], the motif_found result (HD2 library, bait EIF4E_eIF4E__P06730_1_217, benchmark motif instance, in_library_check FALSE, in_library_coverage 0) was “FALSE”.

As to LMINPTGCARSEPKILTHYKR, the motif_found result under setting [6] is on record as “FALSE”.

Take LNKYQGFIFDIVTK [SCN5A]: the motif_found entry under setting [2] was “FALSE”.

The substance LNPFLTKSSGDVHLSI had a best_specificity under setting [10] of 1. This substance also yielded a best_confidence under setting [11] of 4. For the same substance, under setting [12], the motif_found result is “TRUE”.

Under setting [3], LNPNAEVWGAPVLHLE showed a best_confidence of 4. Further, the best_specificity under setting [4] was 1. For the same substance, the motif_found result under setting [5] is given as “TRUE”.

Turning to LNQDFSGFQLLVDVALKRAAEM, the motif_found entry (bait SIN3A_PAH__Q96ST3_295_383, HD2 library, whether the validated benchmark motif instance was recovered in the ProP-PD selection (TRUE/FALSE)) was “FALSE”.

With LPIPGTPPPNYDSLRLQP, the motif_found entry reads like this: (bait NEDD4_WW_4_P46934_890_928, HD2 library, whether the validated benchmark motif instance was recovered in the ProP-PD selection (TRUE/FALSE)) “FALSE”; (library HD2, bait YAP1_WW_1_P46937_169_207, validated benchmark motif instance, in_library_check TRUE, TRUE/FALSE = instance recovered in ProP-PD selection) “FALSE”.

For the substance LPLEFSDDLDVVGDGMQC, under setting [6], the motif_found result is recorded as “FALSE”.

With “LPLYTSPSLPNITLGLP,PLPLYTSPSLPNITLGLPATGPSA [HDAC4]”, the motif_found entry (bait ANKRA2_Ank__Q9H9E1_142_313, library HD2, benchmarking set of validated motif instances, TRUE = motif instance recovered in the ProP-PD selection) is “TRUE”.

In turn, LPRTQPDGTSVPGEPA registered a best_specificity (HD2 library, bait TNKS_TANK-peptide-bind__O95271_174_649, best matching selected peptide) of 1. Moreover, the best_confidence (HD2 library, bait TNKS_TANK-peptide-bind__O95271_174_649, confidence level of best matching selected peptide) amounted to 2. Also, the motif_found result under setting [13] is on record as “TRUE”.

LQDVQPSPINPFSAFF displayed a best_specificity under setting [10] of 1. In addition, the best_confidence under setting [11] is given as 2. The motif_found result under setting [12] was “TRUE”.

Consider LQLPSLDDQVIPARLP, for which, for the setting “bait ANKRA2_Ank__Q9H9E1_142_313, library HD”, the HD confidence was 3. The substance further gave an HD count proportions (bait ANKRA2_Ank__Q9H9E1_142_313, library HD, mean normalised NGS counts) of 0.001339. The HD mean counts (bait ANKRA2_Ank__Q9H9E1_142_313, library HD, mean raw NGS counts, all selections) came out at 12.75.

LQQSIAREPSAPSIPTPAYQ: the motif_found result (library HD2, bait TSG101_UEV__Q99816_1_145, validated benchmark motif instance, in_library_check TRUE, TRUE/FALSE = instance recovered in ProP-PD selection) is “FALSE”.

On to “LQYFRDHINDIIKIQAFIRANKARDDYKTLINA [IQGAP1 836-854]”, for which, under setting [7], the motif_found entry was “FALSE”.

Consider “LRRGQILWFRGLNRIQTQIDVINTFQTGASFKGVLRRQNMGQHLDVKLVPSSSYIKVVKAFHSS [ATP2B4]”, for which, under setting [2], the motif_found result was “FALSE”.

As for LSELDRLLLELN, the motif_found result under setting [8] is on record as “FALSE”.

For the setting “bait SIN3A_PAH__Q96ST3_295_383”, LSKLDVLVLAASYIAH gave an HD2_nucleus confidence of 4.

On to LSKMQQNGYENPTYKFFEQMQN, for which the motif_found result under setting [1] is on record as “FALSE”.

With LSLGSAGERGEAEGCPPSREAE, under setting [13], the motif_found result is reported as “FALSE”.

Turning to LSSPLVPGNPFEEPTCINP, the motif_found result under setting [12] was “FALSE”.

In turn, LSVNAPEFYPSGYSSS showed a best_confidence under setting [3] of 3. The substance also yielded a best_specificity under setting [4] of 1. The motif_found entry under setting [5] is recorded as “TRUE”.

Turning to LSVSPARWAEEYLEQSEEK, the motif_found result (bait PEX14_Pex14__O75381_16_84, HD2 library, whether the validated benchmark motif instance was recovered in the ProP-PD selection (TRUE/FALSE)) is “FALSE”.

For the substance LSWPDLLSDPSIVGSN, the HD2-1mM_CaCl confidence (bait CALM1 EF-hand (P0DP23, 2-149), HD2 library selection with 1mM_CaCl, confidence level (4 = High, 2 or 3 = Medium, 1 = Low)) is given as 3. The HD2 confidence (bait CALM1 EF-hand (P0DP23, 2-149), HD2 library selection, confidence level (4 = High, 2 or 3 = Medium, 1 = Low)) was found to be 3.

Turning to LYKEATSTFTNITYRGT-----, the motif_found result under setting [1] is on record as “FALSE”.

Consider LYNFPQSPPAQYSPMH, for which the HD2_nc confidence (bait CEP55_EABR__Q53EZ4_160_217, HD2 P8 nucleocytoplasmic sublibrary, confidence level (4 = High, 2-3 = Medium, 1 = Low)) is given as 4. This substance also returned an HD2_nc mean counts (bait CEP55_EABR__Q53EZ4_160_217, HD2 P8 nucleocytoplasmic sublibrary, mean NGS counts over replicate selections) of 101.3. The substance further displayed an HD2_nc count proportions (bait CEP55_EABR__Q53EZ4_160_217, HD2 P8 nucleocytoplasmic sublibrary, mean proportion of NGS counts) of 0.001637.

Regarding LYPTDCPPSYEAVMGL, the p3_HD2 confidence (bait NEDD4_WW_4_P46934_890_928, HD2 P3 library, confidence level (4 = High, 2-3 = Medium, 1 = Low)) was found to be 3. Moreover, the p3_HD2 mean counts (bait NEDD4_WW_4_P46934_890_928, HD2 P3 library, mean NGS counts over replicate selections) came out at 285.3. Also, the p3_HD2 count proportions (bait NEDD4_WW_4_P46934_890_928, HD2 P3 library, mean proportion of NGS counts) was found to be 0.005597. Where the note is “bait NEDD4_WW_4_P46934_890_928, HD2 P8 cytoplasm sublibrary, confidence level (4 = High, 2-3 = Medium, 1 = Low)”, this substance had an HD2_cytoplasm confidence of 4.

For the substance MDDLDALLADLESTTSHIS, under setting [8], the motif_found result is “FALSE”.

Take MDVFMKGLSKAKEGVVAAA [SNCA]: under setting [2], the motif_found result was “FALSE”.
